Assay results published in PMC8047011, “Enantiomers of 2-methylglutamate and 2-methylglutamine selectively impact mouse brain metabolism and behavior” (Scientific Reports, 2021).

Legend:
Assay type in all cases: in vivo, mouse
C57Bl/6 mice [1] = assay: Elevated plus maze; conditions: chronic 10 mg/kg/day IP, week 1 of testing
Text: (§1) See Supplementary Methods for details.
Elevated Plus Maze: The maze was made of acrylonitrile butadiene styrene (ABS) plastic and had two open arms and two close arms that were 30 cm long and 5 cm wide. The center area where the open and close arms meet was 5 cm x 5 cm. The open arms had 2 mm lips at the edges, and the closed arms had 15 cm opaque walls. The maze was elevated 50 cm and surrounded by privacy blinds during the test. The maze was illuminated to 7 lux using red light throughout the test. Each mouse was released in the center of the maze and given 5 min to explore the maze. Duration and frequency in each zone of the maze were recorded using Ethovision (Noldus Information Technology, Wageningen, the Netherlands) tracking software. […]

C57Bl/6 mice [2] = assay: Fear conditioning; conditions: chronic 10 mg/kg/day IP, week 4 of testing
Text: See Supplementary Methods for details. […]
Fear Conditioning: Coulbourn Instruments (Holliston, MA, USA) fear conditioning system and FreezeFrame software were used for analysis. The experiment consisted of 1 day of training, 1 day of contextual testing, and 1 day of cued testing. The training and contextual testing chambers were identical with similar context. The walls were made of aluminum. The floor was […]
a gray metal grid through which the US was delivered, and the chambers used yellow color house light and were scented with mint extract to produce a unique smell in the chambers. The chambers were cleaned with a 10% simple green solution (Sunshine Makers, Inc.) between each mouse. The cued testing chambers were circular-shaped, made of plastic, used blue color house light, and were scented with vanilla extract to create a unique context different from training and contextual testing. This chamber was cleaned with 70% ethanol between each mouse. Both chambers were mounted within specially designed sound-attenuating chambers.
Each chamber had speakers mounted on the wall and included an exhaust fan and camera. On Day 1 training, mice were placed individually into a training chamber for 200 seconds. A tone (20 seconds, 80 dB, 2 kHz) was presented to the mouse, followed by an electrical shock (intensity 0.5 mA, 2 seconds) 18 seconds after the end of the tone (Misane et al. 2005, Burman 2014, Lugo et al. 2014). This procedure was repeated two times with a 60 second interval from the end of the shock to the next tone. The mouse was removed from the chamber and returned to the home cage 60 seconds after the last shock. On Day 2, the mice were placed back into the training chamber without any tone or shock for contextual memory testing for 15 minutes. On Day 3, the mice were placed into the cued testing chamber with just tones (20 seconds, 80dB, 2 kHz) presented 3 times with 80 second intervals after 200 seconds of habituation. Overall, the mice received the tone and shock pairings only on the training day. An overhead camera was used to record mice freezing behavior. The fear conditioning test was conducted after four weeks of exposure to compounds or vehicle.
We have shown when studying the cognitive enhancement in normal, young control mice, overtraining of the animals will lead to saturation of behavioral learning, making it very difficult to display pharmacological improvements in behavioral paradigms. We therefore chose less training trials per day and less number of training days in the Morris water maze to increase the likelihood of observing drug effects. Likewise, the fear conditioning task, we chose lower shock

C57Bl/6 mice [3] = assay: Morris water maze; conditions: chronic 10 mg/kg/day IP, weeks 2 and 3 of testing
Text: as §1
Elevated Plus Maze: The maze was made of acrylonitrile butadiene styrene (ABS) plastic and had two open arms and two close arms that were 30 cm long and 5 cm wide. The center area where the open and close arms meet was 5 cm x 5 cm. The open arms had 2 mm lips at the edges, and the closed arms had 15 cm opaque walls. The maze was elevated 50 cm and surrounded by privacy blinds during the test. The maze was illuminated to 7 lux using red light throughout the test. Each mouse was released in the center of the maze and given 5 min to explore the maze. Duration and frequency in each zone of the maze were recorded using Ethovision (Noldus Information Technology, Wageningen, the Netherlands) tracking software.
Y Maze Spontaneous Alternation: The Y maze is made of plastic with 3 arms in a "Y" shape.
The arms are labelled as Arm A, B, and C; Arm A is 20.32 cm (L) x 5 cm (W) 12.7 cm (H), Arm B and C are 15.24 cm (L) x 5 cm (W), and 12.7 cm (H). The test is based on the willingness of rodents to explore a novel environment and designed to measure spontaneous alternations in rodents. Each mouse was placed in the center of the maze facing Arm B. The first entry was excluded from data analysis because the animals were led to the initial arm entry by the experimenter. Using an overhead camera, the number of arm entries and alternations were recorded for 5 minutes. An arm entry is when all four paws enter into a new arm of the maze.
The apparatus was cleaned with 1% Virkon. Parameters recorded were % alternation and the total number of entries into arms. The Y maze test was conducted after two weeks of exposure […]
A ping pong ball was erected from the submerged platform and the mice were given two trials of Visible Platform Training to ensure they lacked gross sensorimotor deficit and visual impairment. The escape latency, distance moved, duration in zones, and velocity of the animals were recorded using Ethovision XT (Noldus Information Technology, Wageningen, Netherlands). […]

Row | Compound | Time spent in the open arms in the elevated plus maze (C57Bl/6 mice [1]) | Fear conditioning Day 1, learning of the tone-shock association (C57Bl/6 mice [2]) | Fear conditioning Day 2, contextual recall vs vehicle (C57Bl/6 mice [2]) | Fear conditioning Day 3, freezing during cued recall or tone presentation vs vehicle (C57Bl/6 mice [2]) | Learning in the Morris water maze (C57Bl/6 mice [3])
1 | CC(N)(CCC(N)=O)C(=O)O (racemic) [rac-2MeGln, rac-2-methylglutamine] | no significant effect of treatment | equivalent learning of the tone-shock association | no significant effect of treatments | no significant differences detected | no significant effect of treatment
2 | C[C@@](N)(CCC(=O)O)C(=O)O [(R)-2MeGlu, (R)-2-methylglutamic acid] | no significant effect of treatment | equivalent learning of the tone-shock association | no significant effect of treatments | no significant differences detected | no significant effect of treatment
3 | C[C@](N)(CCC(=O)O)C(=O)O [(S)-2MeGlu, (S)-2-methylglutamic acid] | no significant effect of treatment | equivalent learning of the tone-shock association | no significant effect of treatments | no significant differences detected | no significant effect of treatment
